Laboratory results as given in paper PMC7959846, “Block of Voltage-Gated Sodium Channels by Atomoxetine in a State- and Use-dependent Manner” (Frontiers in Pharmacology, 2021).
“And” between values parts separate entries of the source, which are not always exact repeats. Identical values can stand only once.

Key:
hNav1.5 [1] = biological target: T1, hNav1.5 (Homo sapiens, UniProt Q14524); assay: Use-dependent interaction (high frequency stimulation trains); conditions: for relative current amplitude of the 50th pulse related to the first pulse: 1 ms test pulse; for remaining current amplitude (use-dependence, pulse duration series): 10 Hz (Figure 9B)
Description: To investigate whether atomoxetine also interacts with the open channel, we first tested for a possible use-dependency. All these experiments were carried out at a holding potential of −140 mV and a test pulse to −20 mV with its duration set to 1 ms. This short activation time was chosen to minimize the time the channels spent in the inactivated state. After establishing stable baseline values using infrequent activations every 5 s (0.2 Hz) a train of high frequency stimulation (1, 3 10 Hz) was started. For evaluation, the peak current amplitude of each pulse was divided by the amplitude of the first response of the high frequency stimulation train. […] For quantification, the remaining current amplitudes of the 50th pulse were related to the first pulse. […] In order to analyse further if atomoxetine prefers an interaction with the open or fast inactivated state, we increased the test pulse duration up to a factor of 20.
FIGURE 9 Analysis for use-dependence at a pulsing frequency of 10 Hz (A) After establishing stable control responses (activations every 5 s), atomoxetine was preincubated for 20 s before test pulses (1 ms) were applied at a frequency of 10 Hz. […] The amplitudes which were obtained from the high frequency stimulation are related to the first pulse of each train.

hNav1.5 [2] = biological target: T1, hNav1.5; assay: Block development, interaction with the inactivated state: kinetic parameters (double-pulse protocol); conditions: for remaining current at the longest inactivation time: prepulse −20 mV up to 32 s
Description: The time constant (τ) of block development for the different concentrations of atomoxetine was estimated by single exponential fits of the form: I/Imax = S+ a1*e^(−t/τ1) (7) t denotes the time, a is the fraction of channels which is blocked, and S represents the residual current.
Association (kon in µM^−1s^−1) and dissociation rates (koff in s^−1) were estimated from the slope and the y-intercept of a linear regression where the inverse of the fast time constants (1/τ) was plotted vs. the drug concentration [D] […] 1/τ= koff+kon*[D] (8) The affinity for the inactivated state (Ki) was calculated according to: Ki= koff/kon (9)
Instead of this, we employed another double-pulse protocol in order to determine the time dependence of the interaction of atomoxetine with the inactivated state. The experimental scheme consisted of a conditioning prepulse to −20 mV for a variable duration (range: 0.002–32 s), a short recovery for 100 ms at −140 mV, followed by the test pulse to −20 mV (inset to Figure 5A). […] For estimation of rate constants the inverse of the time constants (1/τ) were plotted vs. the concentration of atomoxetine (Figure 5C).
The pulse protocol (inset) was applied in intervals of 20 s. The peak currents of the test pulse were normalized to the peak amplitude of the prepulse and plotted vs. its duration. Solid lines represent fits of single exponential functions to data obtained for control (open squares) or different concentrations of atomoxetine (B) Data normalized with respect to control (C) The inverse of the time constants of individual cells were plotted vs. the concentration of atomoxetine. […] N = 5.

hNav1.5 [3] = biological target: T1, hNav1.5; assay: Voltage dependence of activation, whole-cell patch clamp; assay type: cell-based; parameters: expressed in transfected cells; host or cells: tsA201 (HEK-293 derivative)
hNav1.5 [4] = biological target: T1, hNav1.5; assay: Slow inactivation (10 s conditioning prepulse); conditions: slow inactivation fit (Eq. 5); for V50_1: N = 5
Description: Voltage dependence of activation was calculated in two steps: First, changes in driving force owing to the different test potentials were considered by calculating the conductance g according to g = I/V−ENa (2) Thereafter, normalized data were fitted with a Boltzmann equation of the form: g/gmax= 1/1+e^(V50 − V/k) (3) Voltage dependence of fast inactivation were fit using a Boltzmann equation of the form: I/Imax= 1/1+ e^(V − V50/k) (4) In case of slow inactivation Eq. 4 was extended by a second term and the additional parameter (S) which considers the steady-state level of the incomplete inactivation. I/Imax=(1−S)(a1/1+ e^(V− V501/k1)+ a2/1+ e^(V− V502/k2))+ S (5) Abbreviations used for voltage-dependent parameters: V and V50i are the actual membrane potentials and the potentials at which half maximal current (I)/conductance (g) occur, respectively. ENa indicates the reversal potential which was experimentally determined for each cell. The slope factors are given by ki and the relative amount of the individual terms are represented by ai. Constraint throughout: ∑i=1nai=1 .
In a next set of experiments, we directly investigated for a possible interaction with the slow inactivated state. To this end, similar experiments as shown in Figure 4 were conducted with the following deviations: the duration of the conditioning prepulse was set to 10 s, and a recovery period (100 ms) at −160 mV was inserted immediately before the test pulse to eliminate or minimize the contribution from fast-inactivation. […] Another hallmark for an interaction with the slow inactivated state is an ongoing increase in inhibition in the potential range (V50_2) where slow inactivation is expected to occur. In order to evaluate this we renormalized the data in the presence of atomoxetine with their respective control (Figure 7B).
FIGURE 7 Interaction with the slow-inactivated state (A) Infrequent (interval: 30 s) channel activations by step depolarisations to −20 mV were elicited after long lasting (10 s) conditioning prepulses to different potentials (inset). A short (100 ms) recovery period at −160 mV was inserted immediately before the test pulse. Data of normalized peak currents are plotted vs. the prepulse potential. Solid lines are fits according to Eq. 5 for control (open squares) and atomoxetine (3 µM) (filled symbols). […] (B) Plot of renormalized data was obtained by dividing the drug values by control values.

hNav1.5 [5] = biological target: T1, hNav1.5; assay: Tonic block of hNav1.5 channels (resting state, holding potential −140 mV), whole-cell patch clamp in tsA201 cells; conditions: N = 5
Description: The tsA201 cell line is a derivative of the human embryonic kidney cell line HEK-293 (ATCC#CRL1537, Merck KGaA, Darmstadt, Germany). tsA201 cells were cultured at 37°C in a humidified atmosphere at 95% air and 5% CO2 in MEM (minimum essential medium, Gibco, Eggenstein, Germany) supplemented with 50 U/ml penicillin, 50 μg/ml streptomycin (Gibco), 2 mM L-glutamine (Boehringer, Mannheim, Germany), and 10% fetal calf serum (Gibco). The cells were grown on polyornithine-coated culture dishes to 40% confluency and transfected using the TransFectin LipidReagent kit (Bio-Rad, München, Germany).
Briefly, tsA201 cells were used for experiments 24–48 h after transfection. Membrane currents were recorded in the whole-cell recording mode using an EPC-9 amplifier and Patchmaster software (v2x73; HEKA, Lambrecht, Germany ([Hamill et al., 1981])). Before recording, cells were rinsed twice with an extracellular standard solution containing (in mM): 140 NaCl, 5 KCl, 1.5 CaCl2, 10 glucose and 12 HEPES; adjusted to a final pH of 7.3. Patch pipettes were drawn from borosilicate glass with tip resistances of about 2 MΩ when filled with (in mM): 125 CsF, 10 NaF, 1 MgCl2, 10 EGTA, 10 HEPES; adjusted to a final pH of 7.2. To improve sealing, tips were briefly dipped into 2% dimethylsilane dissolved in dichloromethane. Unless otherwise stated, cells were held at a holding potential of −140 mV from which channel activation was elicited by brief depolarizing pulses to −20 mV of 5 ms duration. To minimize voltage errors, the series resistance was compensated up to 80%. Cells with currents larger than 6 nA were excluded from evaluation.
The medium in the dish (1.5 ml) was continuously exchanged using a "global" bath perfusion with the inflow set to 4.5 ml/min and the outflow removing any excess fluid. Reagents were applied locally to the cells by the L/M-SPS-8 superfusion system (List, Darmstadt, Germany). Switching between the 8 channels of the superfusion system was controlled by magnetic valves. The local inlet (tip of an eight-barrelled pipette) was positioned at a distance of 50–100 μm upstream and the local outlet at about 300 μm downstream of the patch pipette. A constant flow rate of control and test solutions (1 ml/min) was achieved by means of a pressure control system (MPCU-3, Lorenz, Göttingen, Germany). The time of solution exchange was estimated from the changes in the liquid junction potential to be about 1 ms. If not otherwise stated, drugs were preapplied for 20 s before starting the experiments.
Concentration-inhibition curves for the estimation of Kr (IC50 at −140 mV; Figure 2) or Kapp (Figure 6) were fitted to the Hill equation ID/IC= 1/1+([D]/IC50)^n (1) ID and IC are the current amplitudes in the presence and absence of the drug (D). [D] is the concentration of the drug. […]

hNav1.5 [6] = biological target: T1, hNav1.5; assay: Voltage dependence of fast inactivation (500 ms prepulse); assay type: cell-based; parameters: expressed in transfected cells; host or cells: tsA201 (HEK-293 derivative); conditions: for net drug-induced shift of half maximal fast inactivation (signed): N = 5
Description: Constraint throughout: ∑i=1nai=1 .
For establishing inactivation curves, the membrane potential was stepped to different prepulse potentials (from −140 to −45 mV; increment 5 mV) for 500 ms before channel activations were carried out by depolarizations to −20 mV. For estimation of inactivation parameters, the normalized peak currents were plotted vs. the prepulse potentials. Inactivation curves, characterized by inactivation midpoints and the curve slope were obtained by data fitting using Eq. 4. […] After a second control, atomoxetine was applied at a concentration of 3 and 10 µM (Figure 4A) For final evaluation of drug effects, first the endogenous shift was estimated for each cell individually by the difference between the two controls. […] We used a cell-specific endogenous shift instead of a global shift, as the endogenous shift is highly variable between individual cells.
FIGURE 4 Voltage dependence of fast inactivation (A) Data of a representative measurement series of normalized peak currents in the absence and presence of atomoxetine are shown. Solid lines represent fits according to Eq. 4.

hNav1.5 [7] = biological target: T1, hNav1.5; assay: Recovery from inactivation (double pulse protocols); assay type: cell-based; parameters: expressed in transfected cells; host or cells: tsA201 (HEK-293 derivative)
Description: Current amplitudes were normalized to the maximum peak amplitude of INa in the absence and presence of atomoxetine. Recovery time constants were estimated from double or triple exponential fits according to: I/Imax = 1− a1*e^(−t/τ1) −a2*e^(−t/τ2)− a3*e^(−t/τ3) (10)
Recovery from inactivation was estimated with double pulse protocols using two different durations for the inactivating pulse: 500 ms and 10 s. The test pulse was applied after a variable time spent at the recovery potential of −140 mV (inset Figure 8). Using the short inactivation time of 500 ms, recovery occurred with two time constants. In the absence of atomoxetine about 90% of the channels recovered with a fast time constant (τ 1 = 2.2 ± 0.2 ms), representing recovering from fast inactivation. The remainder recovered with a slower time constant (τ 2 = 37.7 ± 15.6 ms), probably representing recovery from slow inactivation. In the presence of atomoxetine the time constant of the fast component was hardly extended whereas those of the slow time constant was prolongated with little or no change in the relative amount of the two components (Figure 8A, Table 2). […] Using an inactivation time of 10 s, recovery has to be fitted with triple exponential functions, separating the recovery process in a fast, intermediate and a slow component (Figure 8B). In the presence of atomoxetine a profound increase in all time constants resulted. Moreover, the component of the fast time constant decreased and that of the slow component increased in a concentration dependent manner while the amount of the intermediate component stayed almost constant (Table 3).
FIGURE 8 Recovery from inactivation (A) The relative amount of available channels after increasing duration of recovery at −140 mV is illustrated. Inactivation was performed at −20 mV for 500 ms. The pulse protocol is illustrated by the inset. Interval between individual measurements was 10 s and atomoxetine was applied at 3 and 10 µM. Solid lines represent fits with two exponential functions according to Eq. 10. (B) Otherwise identical protocol as in (A) but with the inactivation time set to 10 s. For data fitting, three exponentials were required. For fit parameters see Table 2, N = 5.

hNav1.5 [8] = biological target: T1, hNav1.5; assay: Interaction with the inactivated state: steady-state concentration-response relationship
Description: Concentration-inhibition curves for the estimation of Kr (IC50 at −140 mV; Figure 2) or Kapp (Figure 6) were fitted to the Hill equation ID/IC= 1/1+([D]/IC50)^n (1) ID and IC are the current amplitudes in the presence and absence of the drug (D). [D] is the concentration of the drug. IC50 represents the concentration of the blocker that causes 50% inhibition and n is the Hill coefficient.
The affinity to the inactivated state (Ki) was calculated according to ([Bean et al., 1983]) as: 1/Kapp= h/Kr+ (1−h)/Ki (6) Kapp is the apparent affinity estimated at a selected membrane potential at which the amount of non-inactivated channels is given by h (estimated from the corresponding inactivation curve).
Activations were repeated several times at each concentration to achieve steady-state condition (Figure 6A). The holding potential was chosen individually for each cell to be around half maximal inactivation according to a preceding estimation of availability. Before the test pulse a short recovery (100 ms at −160 mV) was carried out (inset to Figure 6A). From the concentration relationship apparent half maximal effective concentrations (Kapp) were calculated using Eq. 1 (Figure 6B). The affinity for the inactivated channel was then calculated according to Eq. 6 which considers the varying amount of inactivated channels in individual experiments.
Activations were carried out every 30 s using a holding potential at which the channels were partly inactivated (relative amount of available channels in this experiment: h = 0.81). Immediately before the activations a short recovery (100 m s) at −160 mV was intercalated (inset). Activations were repeated at each condition until a near stable current amplitude was achieved. (B) The apparent IC50 (IC50app) was calculated from the concentration-dependent decline of the current amplitudes. The affinity to the inactivated state was calculated considering the current amount of available channels according to Eq. 6.

hNav1.5 [9] = biological target: T1, hNav1.5; parameters: expressed in transfected cells; host or cells: tsA201 (HEK-293 derivative); method as in Poulin et al., 2014; conditions: ref Poulin et al., 2014; cited from earlier work
WCW-mutant = tested on: WCW-mutant; parameters: method as in Poulin et al., 2014; conditions: ref Poulin et al., 2014; cited from earlier work
F1760C = tested on: F1760C; parameters: method as in Poulin et al., 2014; conditions: anaesthetic binding site; ref Poulin et al., 2014; cited from earlier work

T1 sequence (Q14524 whole entry): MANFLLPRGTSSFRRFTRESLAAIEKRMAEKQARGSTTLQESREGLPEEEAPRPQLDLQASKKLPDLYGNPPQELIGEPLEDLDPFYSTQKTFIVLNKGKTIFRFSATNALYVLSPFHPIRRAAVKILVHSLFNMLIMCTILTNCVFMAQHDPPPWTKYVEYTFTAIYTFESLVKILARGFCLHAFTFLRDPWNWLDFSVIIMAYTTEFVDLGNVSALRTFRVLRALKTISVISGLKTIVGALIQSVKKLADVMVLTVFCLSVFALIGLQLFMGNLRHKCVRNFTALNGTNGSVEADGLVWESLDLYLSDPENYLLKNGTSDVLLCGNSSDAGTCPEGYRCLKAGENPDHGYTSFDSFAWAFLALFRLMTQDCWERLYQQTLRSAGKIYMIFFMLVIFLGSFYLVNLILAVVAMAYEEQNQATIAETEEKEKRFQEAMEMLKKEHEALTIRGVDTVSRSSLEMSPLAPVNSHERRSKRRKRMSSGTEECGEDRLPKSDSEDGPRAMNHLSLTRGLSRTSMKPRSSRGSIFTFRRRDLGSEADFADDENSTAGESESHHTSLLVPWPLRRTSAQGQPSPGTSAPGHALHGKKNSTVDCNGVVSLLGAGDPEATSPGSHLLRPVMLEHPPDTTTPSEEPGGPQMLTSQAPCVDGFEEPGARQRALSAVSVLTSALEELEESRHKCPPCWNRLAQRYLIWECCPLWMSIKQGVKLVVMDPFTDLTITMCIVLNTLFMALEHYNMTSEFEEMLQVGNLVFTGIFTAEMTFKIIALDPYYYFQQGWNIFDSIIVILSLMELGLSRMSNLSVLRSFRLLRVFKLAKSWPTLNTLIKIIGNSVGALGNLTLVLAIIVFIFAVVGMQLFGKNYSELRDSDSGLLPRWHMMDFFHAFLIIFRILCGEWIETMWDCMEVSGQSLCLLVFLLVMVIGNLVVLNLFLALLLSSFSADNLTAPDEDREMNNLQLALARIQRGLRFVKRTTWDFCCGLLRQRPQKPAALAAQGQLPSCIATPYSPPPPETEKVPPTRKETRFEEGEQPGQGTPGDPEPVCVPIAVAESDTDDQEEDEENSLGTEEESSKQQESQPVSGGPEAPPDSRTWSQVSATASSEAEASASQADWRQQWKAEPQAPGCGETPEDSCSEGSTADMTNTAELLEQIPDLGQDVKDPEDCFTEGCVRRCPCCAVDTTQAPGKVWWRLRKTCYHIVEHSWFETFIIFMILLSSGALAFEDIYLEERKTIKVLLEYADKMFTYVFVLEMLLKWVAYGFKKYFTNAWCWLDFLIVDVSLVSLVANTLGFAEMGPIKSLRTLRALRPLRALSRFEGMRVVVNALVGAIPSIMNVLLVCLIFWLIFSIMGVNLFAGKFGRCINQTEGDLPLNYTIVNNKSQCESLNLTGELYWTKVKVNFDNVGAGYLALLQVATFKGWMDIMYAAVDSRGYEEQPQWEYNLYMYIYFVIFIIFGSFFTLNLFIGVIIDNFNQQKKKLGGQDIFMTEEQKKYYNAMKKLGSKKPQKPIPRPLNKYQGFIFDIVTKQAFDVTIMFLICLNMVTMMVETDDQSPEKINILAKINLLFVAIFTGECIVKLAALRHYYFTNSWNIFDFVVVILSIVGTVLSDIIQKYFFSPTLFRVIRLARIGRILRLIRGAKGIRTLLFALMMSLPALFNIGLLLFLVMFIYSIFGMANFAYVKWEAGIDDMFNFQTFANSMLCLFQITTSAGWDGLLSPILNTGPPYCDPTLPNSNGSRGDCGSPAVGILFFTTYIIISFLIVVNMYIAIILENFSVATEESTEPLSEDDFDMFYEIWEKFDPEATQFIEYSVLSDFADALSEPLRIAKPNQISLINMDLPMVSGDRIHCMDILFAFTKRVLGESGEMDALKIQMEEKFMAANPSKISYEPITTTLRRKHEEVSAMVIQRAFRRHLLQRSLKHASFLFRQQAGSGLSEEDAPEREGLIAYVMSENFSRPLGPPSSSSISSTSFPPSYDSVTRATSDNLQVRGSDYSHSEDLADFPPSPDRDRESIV

## CNCC[C@@H](Oc1ccccc1C)c1ccccc1 [atomoxetine]
hNav1.5 [1]; 1 Hz, 1 µM atomoxetine
  relative current amplitude of the 50th pulse related to the first pulse: 0.96 ± 0.01
hNav1.5 [1]; 1 Hz, 3 µM atomoxetine
  relative current amplitude of the 50th pulse related to the first pulse: 0.89 ± 0.05
hNav1.5 [1]; 1 Hz, 10 µM atomoxetine
  relative current amplitude of the 50th pulse related to the first pulse: 0.69 ± 0.09
hNav1.5 [1]; 3 Hz, 1 µM atomoxetine
  relative current amplitude of the 50th pulse related to the first pulse: 0.95 ± 0.02
hNav1.5 [1]; 3 Hz, 3 µM atomoxetine
  relative current amplitude of the 50th pulse related to the first pulse: 0.85 ± 0.07
hNav1.5 [1]; 3 Hz, 10 µM atomoxetine
  relative current amplitude of the 50th pulse related to the first pulse: 0.61 ± 0.09
hNav1.5 [1]; 10 Hz, 3 µM atomoxetine
  relative current amplitude of the 50th pulse related to the first pulse: 0.79 ± 0.03
hNav1.5 [1]; 10 Hz, 10 µM atomoxetine
  relative current amplitude of the 50th pulse related to the first pulse: 0.48 ± 0.07
hNav1.5 [1]; activation time 1 ms, 10 µM atomoxetine
  remaining current amplitude (use-dependence, pulse duration series): 0.54 ± 0.03
hNav1.5 [1]; activation time 5 ms, 10 µM atomoxetine
  remaining current amplitude (use-dependence, pulse duration series): 0.43 ± 0.03
hNav1.5 [1]; activation time 20 ms, 10 µM atomoxetine
  remaining current amplitude (use-dependence, pulse duration series): 0.37 ± 0.09
hNav1.5 [2]
  Ki: 2570 nM
hNav1.5 [2]; 3 µM atomoxetine, control 70.0 ± 14.0%
  remaining current at the longest inactivation time: 32.6 ± 9.8%
hNav1.5 [2]; 10 µM atomoxetine
  remaining current at the longest inactivation time: 11.5 ± 8.0%
hNav1.5 [2]; 10 µM atomoxetine, single exponential fit, normalized to control
  time constant of block development: 4.3 ± 0.1 s
hNav1.5 [2]; read-out: rate constant for association (kon)
  kon: 18500 M⁻¹ s⁻¹
hNav1.5 [2]; read-out: rate constant for dissociation (koff)
  koff: 0.047 s⁻¹
hNav1.5 [3]; 3 µM atomoxetine
  slope of the activation curve: 6.6 ± 0.6 mV
hNav1.5 [3]; 3 µM atomoxetine, control −52.6 ± 3.5 mV
  midpoint of the activation curve (half maximal activation): −54.5 ± 3.9 mV
hNav1.5 [3]; 10 µM atomoxetine
  midpoint of the activation curve: −55.5 ± 4.1 mV
  slope of the activation curve: 6.9 ± 0.6 mV
hNav1.5 [4]; 3 µM
  V50_2: −65.5 ± 2.8 mV
  a1: 37.5 ± 18.7%
  k1: 5.2 ± 0.4 mV
  k2: 31.8 ± 1.9 mV
  V50_1: −101.3 ± 0.3 mV
hNav1.5 [4]; 10 µM
  V50_2: −102.7 ± 3.9 mV
  a1: 71.1 ± 19.7%
  k1: 5.9 ± 0.2 mV
  k2: 34.2 ± 4.7 mV
  V50_1: −107.7 ± 0.2 mV
hNav1.5 [5]; half maximal effective concentration (Kr, IC50 at −140 mV; affinity for the resting state), drug preapplied 30 s
  IC50: ~120000 nM and 120000 nM and 119000 nM
hNav1.5 [5]; tonic block
  Hill coefficient: 1.47 ± 0.06
hNav1.5 [6]; 3 µM atomoxetine, 500 ms prepulse, corrected for endogenous shift
  net shift in positive direction of fast inactivation midpoint: 0.3 mV
hNav1.5 [6]; 3 µM atomoxetine
  net drug-induced shift of half maximal fast inactivation (signed): +0.3 mV
hNav1.5 [6]; 10 µM atomoxetine, 500 ms prepulse, corrected for endogenous shift
  negative shift of fast inactivation midpoint (net): 0.9 mV
hNav1.5 [6]; 10 µM atomoxetine
  net drug-induced shift of half maximal fast inactivation (signed): −0.9 mV
hNav1.5 [7]; 3 µM, inactivation 10 s
  τ 1 (%) relative amount of component: 39.7 ± 2.2%
  τ 1 (recovery time constant): 5.8 ± 0.7 ms
  τ 2 (%) relative amount of component: 22.7 ± 1.0%
  τ 2 (recovery time constant): 139 ± 37.2 ms
  τ 3 (recovery time constant): 3,524 ± 377 ms
hNav1.5 [7]; 3 µM, inactivation 500 ms
  τ 1 (%) relative amount of component: 90.3 ± 2.0%
  τ 2 (recovery time constant): 191.7 ± 74.2 ms
hNav1.5 [7]; 3 µM, inactivation 500 ms, recovery at −140 mV
  τ 1 (recovery time constant): 3.1 ± 0.2 ms
hNav1.5 [7]; 10 µM, inactivation 10 s
  τ 1 (%) relative amount of component: 15.0 ± 1.6%
  τ 1 (recovery time constant): 12.4 ± 0.3 ms
  τ 2 (%) relative amount of component: 17.2 ± 2.9%
  τ 2 (recovery time constant): 417 ± 152 ms
  τ 3 (recovery time constant): 4,859 ± 332 ms
hNav1.5 [7]; 10 µM, inactivation 500 ms
  τ 1 (%) relative amount of component: 86.2 ± 1.8%
  τ 1 (recovery time constant): 4.7 ± 0.3 ms
  τ 2 (recovery time constant): 1,259 ± 351 ms
hNav1.5 [8]; Half-maximal effective concentrations (interaction with inactivated state), different experimental settings, abstract
  IC50: 2000 to 3000 nM
hNav1.5 [8]; Ki (inactivated state), single experiment of Figure 6B, Eq. 6
  Ki: 1850 nM
hNav1.5 [8]; affinity for the inactivated state (Ki), calculated from Kapp by Eq. 6, holding potential around half maximal inactivation, N = 5
  Ki: 1590 ± 450 nM
hNav1.5 [8]; apparent IC50 (IC50app), single experiment of Figure 6B, partly inactivated channels
  IC50: 2270 nM
hNav1.5 [8]; depending on the applied protocol
  higher affinity for the inactivated state compared to the resting state: about 50 fold

## CNCCC(Oc1ccc(C(F)(F)F)cc1)c1ccccc1 (stereo not shown) [fluoxetine]
hNav1.5 [9]
  ratio of affinity at holding potential −140 mV (resting state) versus −90 mV: less than 10 fold
WCW-mutant
  ratio for the interaction with the resting state (peak current) vs. open channel (late current): 3 fold
F1760C
  ratio in affinity between F1760C and wildtype: about 2 fold
